Measurements as given in the METLIN SMRT retention time set (Domingo-Almenara et al. 2019).

Experiment: gradient 5% acetonitrile 3 min, to 50% in 2 min, to 85% in 15 min, held 3 min, 100 µL/min
Settings: column: Zorbax Extend-C18 2.1 x 50 mm; eluents: water / acetonitrile, 0.1% formic acid
Outline: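 The system's dead and dwell volumes were 40 μL and 900 μL, with a Zorbax Extend-C18 column (2.1 × 50 mm, 1.8 μm) run at 100 μL/min in water and acetonitrile containing 0.1% formic acid each. Pure standards were analyzed in mixtures of ~100 molecules by HPLC–quadrupole time-of-flight mass spectrometry in positive and negative ionization mode. Retention time was assigned from computationally picked, manually inspected adduct peaks.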

| SMILES | RP-LC retention time [s] |
| --- | --- |
| CC(C)n1cc(CN2CCOCCNC(=O)CC2)c2ccccc21 | 631 |
| O=C(c1cn(-c2cc(N3CCCCC3)ncn2)cn1)N1CCN(c2ccccc2)CC1 | 944 |
| COCC(=O)NC(Cc1ccccc1)c1nnc(N2CCSCC2)o1 (centres undefined) | 721 |
| Cc1cc2c(cc1S(=O)(=O)N1CCCC1C(=O)Nc1ccc(F)c(Cl)c1)OC(C)C(=O)N2 (centres undefined) | 866 |
| Cc1cccc2c(C(=O)O)cc(N3CCN(C)CC3)nc12 | 596 |
| CC(=O)N1CCc2cc(N3CC(C(=O)Nc4ccc(F)c(C)c4)CC3=O)ccc21 (centres undefined) | 740 |
| CCOC(=O)c1ccc(NC(=O)CCc2ccc3nc(CC)[nH]c3c2)cc1 | 646 |
| Cn1nccc1-c1cccc(-c2noc(-c3cncc(Br)c3)n2)c1 | 1100 |
| CC(C)NC(=O)C1CCCN(c2nc3ncn(CC(=O)Nc4ccc5c(c4)OCO5)c(=O)c3s2)C1 (centres undefined) | 678 |
| CC(=O)N1CCCN(C2=NS(=O)(=O)C(c3ccc(C)cc3)=C2C)CC1 | 699 |
| CCCCS(=O)(=O)N1CC(c2noc(-c3cccnc3)n2)C2(CCOCC2)C1 (centres undefined) | 788 |
| Cc1cc2[nH]c(C(=O)Nc3ccccc3Br)c(CN3CCOCC3)c2s1 | 708 |
| O=C1NCCCn2cc(S(=O)(=O)Nc3cccc(Cl)c3)cc21 | 680 |
| C[C@@H]1CC2C3CCC4=CC(=O)C=CC4(C)[C@@]3(F)[C@@H](O)CC2(C)[C@@]1(O)C(=O)CO (some centres undefined) | 737 |
| COc1ccc(-c2cc(N3CCN(C(=O)NCCC(C)C)CC3)ncn2)cc1 | 670 |
| COc1nccnc1NC1CCN(C(=O)c2ccnn2C)CC1 | 608 |
| COCCNC(=O)CN1C(=O)C2CCCCN2c2ccc(S(=O)(=O)N3CCCC3)cc21 (centres undefined) | 728 |
| CCOc1ccc(NS(=O)(=O)c2ccc3c(c2)CCCC(=O)N3)cc1 | 709 |
| O=C(COc1ccccc1F)NCC1CN(c2ccc3c(c2)OCO3)C(=O)O1 (centres undefined) | 721 |
| Cc1ccc2nc(C(=O)N3CCN(c4ccccc4Cl)CC3)cn2c1 | 748 |
| CCc1nc2cc(-c3noc(-c4ccc5c(c4)OCO5)n3)ccc2o1 | 1150 |
| COC(=O)C1CCN(S(=O)(=O)c2cc3c4c(c2)CCC(=O)N4CCC3)CC1 | 724 |
| COc1ccc(CCNC(=O)NCCS(=O)(=O)c2c(C)n(C)c3ccccc23)cc1 | 740 |

| SMILES | RP-LC retention time [s] |
| --- | --- |
| O=C(Nc1sc2c(c1C(c1ccncc1)N1CCN(c3ccccn3)CC1)CCCC2)c1ccco1 (centres undefined) | 630 |
| O=c1c2sccc2n(Cc2nc(-c3ccc(Cl)c(F)c3)no2)c(=O)n1-c1cccc(F)c1 | 1090 |
| Cc1ccc(N2CC(c3noc(-c4cc(C)cc(C)c4)n3)CC2=O)cc1 (centres undefined) | 1200 |
| CCc1cccc(C)c1NC(=O)Cn1ncc2c(N3CCN(c4ccccn4)CC3)ncnc21 | 570 |
| CNC(C)Cc1ccccc1OC (centres undefined) | 646 |
| CCNc1cc(N2CCC(CCC(=O)NCc3ccc(F)cc3Cl)CC2)ncn1 | 680 |
| O=C(O[C@@H]1CN2CCC1CC2)N1CCc2ccccc2C1c1ccccc1 (some centres undefined) | 757 |
| CCOc1ccc(-c2noc(CN3C(=O)COc4cc(Cl)ccc43)n2)cc1 | 1180 |
| COc1ccc(C(=O)Nc2nnc(SCc3nnc(-c4ccccc4)o3)s2)cc1 | 899 |
| CC(C)(C)NC(=O)N1CCC(CNC(=O)c2ccccn2)CC1 | 644 |
| CCCC(NC(=O)c1ccc(F)c(F)c1)C(=O)Nc1nc2ccccc2[nH]1 (centres undefined) | 712 |
| O=C(Cn1c(=O)c(CCC(=O)NC2CC2)nc2ccccc21)Nc1ccccc1Br | 712 |
| CC(C)c1nc2cccnc2n1CCN1CCN(C(=O)Nc2ccccc2Cl)CC1 | 607 |
| O=C(COc1ccc(-c2nnc3n2CCCC3)cc1)NCc1ccc2c(c1)OCO2 | 662 |
| CN(C)C(=O)c1nc2ccccn2c1-c1ccsc1 | 595 |
| CCC(=O)N(C1CCOCC1)C1CCN(S(=O)(=O)c2cc(F)ccc2C)CC1 | 864 |
| Cc1ccc2nc(CN(C)Cc3ccc(Cl)cc3)cc(=O)n2c1 | 627 |
| CCn1ccc(C(=O)Nc2cnc(-c3cccc(Cl)c3)nc2)n1 | 1020 |
| CCOCCCN1C(=O)c2cc(-c3ccccc3)nn2CC1(C)C(=O)NCc1ccccc1 (centres undefined) | 914 |
| CCOCCCNS(=O)(=O)c1cc(-c2ccno2)cs1 | 796 |
| O=C(CCC1CCN(c2cc(NC3CC3)ncn2)CC1)N1CCN(c2ccccn2)CC1 | 536 |
| CC(C)NC(=O)N1CCCC(c2cccc(C(=O)NCc3ccc4c(c3)OCO4)c2)C1 (centres undefined) | 822 |
| CC(C)CN1CCn2cc(C(=O)NCc3ccc(F)c(Cl)c3)nc2C1 | 647 |

| SMILES | RP-LC retention time [s] |
| --- | --- |
| COc1ccc([C@H]2Sc3ccccc3N(CCN(C)C)C(=O)[C@H]2OC(C)=O)cc1 | 704 |
| Cc1cc(S(=O)(=O)N2CCc3nc(-c4ccc(F)cc4)ncc3C2)ccc1F | 1130 |
| CC(=O)N1CCc2cc(N3CC(C(=O)NCc4ccc5c(c4)OCO5)CC3=O)ccc21 (centres undefined) | 659 |
| O=C(Cc1csc(NC(=O)c2ccc[nH]c2=O)n1)NCc1cccs1 | 626 |
| CN(C)S(=O)(=O)c1ccc(C(=O)Nc2nc(-c3coc4ccccc34)cs2)cc1 | 1030 |
| CCN1CCN(c2cc(C)c3cc(NC(=O)c4ccc(Br)cc4)ccc3n2)CC1 | 610 |
| O=C(COc1ccc(-c2nnc3n2CCCC3)cc1)Nc1ccc(Cl)cc1 | 757 |
| O=C(NCCc1ccccc1)N1CCN(c2cnn3cnnc3c2)CC1 | 615 |
| Cc1ccc(OCc2nn3c(-c4ccoc4C)nnc3s2)cc1 | 1010 |
| CC1(C(=O)NCc2ccc(F)cc2)CCCN(C(=O)NC2CCCCC2)C1 (centres undefined) | 895 |
| CCOc1ccc(NC(=O)N2CCCC(Cn3c(C4CC4)nc4cccnc43)C2)cc1 (centres undefined) | 689 |
| NCCc1nc(-c2ccccc2)cs1 | 550 |
| COc1cccc(-c2ccc(=O)n(Cc3nc(-c4ccc(Cl)cc4)no3)n2)c1 | 1110 |
| O=C(C1CC1)N1CCc2sc(S(=O)(=O)Nc3cc(Cl)ccc3F)cc2C1 | 868 |
| NS(=O)(=O)c1ccc(CCNC(=O)c2cn3cc(Cl)ccc3n2)cc1 | 660 |
| CC(C)(C)NC(=O)N1CCC(CNC(=O)c2ccsc2)CC1 | 657 |
| CCOC(=O)CNC(=O)NCCc1nc2cccnc2n1Cc1ccccc1 | 648 |
| Cc1c2ccnc(C(N)=O)c2c(C)c2c1[nH]c1ccccc12 | 619 |
| Cc1nn(-c2ccccc2)c(C)c1S(=O)(=O)Nc1ccc(S(N)(=O)=O)cc1 | 731 |
| COc1cccc(-c2nc(Cn3ccnc3)no2)c1 | 601 |
| Cc1ccc(-c2csc(-n3nc(C)c(CC(=O)N4CCc5ccccc5C4)c3C)n2)cc1 | 1310 |
| CCN(CC)c1cc2c(cc1NC(=O)c1ccco1)n(C)c(=O)c(=O)n2C | 724 |
| Cc1ccc(Sc2nccnc2N2CCCC(C(=O)N3CCN(c4ccc(C)cc4)CC3)C2)cc1 (centres undefined) | 1290 |

| SMILES | RP-LC retention time [s] |
| --- | --- |
| COc1ccc(-c2noc(C3CCCN3C(=O)c3ccccc3OC)n2)cc1 (centres undefined) | 901 |
| O=C(CSc1ccc(N2CCCC(C(=O)NC3CC3)C2)nn1)NCc1cccc(C(F)(F)F)c1 (centres undefined) | 678 |
| COc1ccccc1-c1nc2cnccn2c1NCCC(=O)Nc1ccc2c(c1)OCCO2 | 672 |
| O=C([C@@H]1C[C@H](F)CN1S(=O)(=O)c1ccc(F)c(Cl)c1)N1CCCCC1 | 875 |
| CC(C)CCNC(=O)C1CCCN(c2ccnc(-c3ccc(F)cc3)n2)C1 (centres undefined) | 690 |
| NC(=O)C1CCN(C2CC(=O)N(c3ccc(Cl)c(Cl)c3)C2=O)CC1 (centres undefined) | 611 |
| CCn1ncn2cc(S(=O)(=O)NCc3ccc(Cl)cc3)cc2c1=O | 878 |
| O=C(Nc1ccc2c(c1)OCCO2)N1CCN(c2nc3cccnc3n(Cc3ccccc3)c2=O)CC1 | 1000 |
| COCCN1[C@@H]2CCN(Cc3ccc(C#N)cc3)C[C@@]2(C(=O)N2CCOCC2)CCS1(=O)=O | 641 |
| O=C(c1nnn2c1COC(c1ccccc1)C2)N1CCN(C(=O)C2(c3ccccc3)CC2)CC1 (centres undefined) | 850 |
| COc1ccc2c(CCNC(=O)c3ccc4c(c3)OCCO4)c[nH]c2c1 | 684 |
| CC(C)NC(=O)c1ccc(OCC2CCN(C(=O)c3cc(F)ccc3F)CC2)cc1 | 850 |
| COc1ccc(CCc2nc3nccc(-c4cccs4)n3n2)cc1 | 932 |
| CCOC(=O)c1c(C)[nH]c(CN(Cc2ccc3c(c2)OCO3)C(=O)c2ccco2)c1C | 991 |
| CCOc1ccc(C(=O)NC2CCN(c3cc(-c4ccc(OC)cc4)[nH]n3)C2)cc1OCC (centres undefined) | 742 |
| CC1CCN(c2cc(-n3cnc(C(=O)NC4CCCCC4)c3)ncn2)CC1 | 1030 |
| COc1cc(OC)cc(-c2nc(-c3ccc4c(c3)ncn4CCN3CCCCC3)no2)c1 | 680 |
| O=C(c1cccnc1)N1CCCn2nc(-c3ccc(Cl)cc3)cc2C1 | 739 |
| O=C(CSc1nnc(NC(=O)c2ccc(Br)o2)s1)NCC1CCCO1 (centres undefined) | 648 |
| CC(C)n1c(-c2cccc(C(=O)N3CCC4(CC3)OCCO4)c2)nc2cccnc21 | 693 |
